Measured values as given in ChEMBL document CHEMBL3600381, “Small-molecule phosphodiesterase probes: discovery of potent and selective CNS-penetrable quinazoline inhibitors of PDE1” (Medchemcomm, 2014).

Tests used:
[1] = biological target: T1, Dual specificity calcium/calmodulin-dependent 3',5'-cyclic nucleotide phosphodiesterase 1B (Homo sapiens, UniProt Q01064); test: Inhibition of PDE1B (unknown origin) at 1 uM
[2] = biological target: T1, Dual specificity calcium/calmodulin-dependent 3',5'-cyclic nucleotide phosphodiesterase 1B; test: Inhibition of PDE1B (unknown origin)
[3] = biological target: cAMP and cAMP-inhibited cGMP 3',5'-cyclic phosphodiesterase 10A (Homo sapiens, UniProt Q9Y233); test: Inhibition of PDE10A (unknown origin)
[4] = Tmax in mouse at 32 mg/kg, sc; type: ADME, organism-based; details: in vivo
[5] = Half life in mouse at 32 mg/kg, sc; type: ADME, organism-based; details: in vivo
[6] = Fraction unbound in mouse at 32 mg/kg, sc; type: ADME, organism-based; details: in vivo
Nucleic Acid [7] = test: Ratio of drug uptake from blood to plasma in mouse at 32 mg/kg, sc; type: ADME, organism-based; details: in vivo
[8] = Tmax in rat at 10 mg/kg, sc; type: ADME, organism-based; details: in vivo
[9] = Half life in rat at 10 mg/kg, sc; type: ADME, organism-based; details: in vivo
[10] = Fraction unbound in rat at 10 mg/kg, sc; type: ADME, organism-based; details: in vivo
[11] = Ratio of drug uptake from blood to plasma in rat at 10 mg/kg, sc; type: ADME, organism-based; details: blood and plasma
Nucleic Acid [12] = test: Ratio of drug level in CSF to unbound fraction in rat plasma at 10 mg/kg, sc; type: ADME, organism-based; details: in vivo
[13] = Cmax in rat at 50 mg/kg, po after 0.25 hrs; type: ADME, organism-based; parameters: dose 50 mg/kg, route oral; details: in vivo
[14] = Terminal half life in rat at 50 mg/kg, po; type: ADME, organism-based; details: in vivo, read-out: beta t1/2 (converted)

cAMP and cAMP-inhibited cGMP 3',5'-cyclic phosphodiesterase 10A, sequence (Q9Y233 whole entry): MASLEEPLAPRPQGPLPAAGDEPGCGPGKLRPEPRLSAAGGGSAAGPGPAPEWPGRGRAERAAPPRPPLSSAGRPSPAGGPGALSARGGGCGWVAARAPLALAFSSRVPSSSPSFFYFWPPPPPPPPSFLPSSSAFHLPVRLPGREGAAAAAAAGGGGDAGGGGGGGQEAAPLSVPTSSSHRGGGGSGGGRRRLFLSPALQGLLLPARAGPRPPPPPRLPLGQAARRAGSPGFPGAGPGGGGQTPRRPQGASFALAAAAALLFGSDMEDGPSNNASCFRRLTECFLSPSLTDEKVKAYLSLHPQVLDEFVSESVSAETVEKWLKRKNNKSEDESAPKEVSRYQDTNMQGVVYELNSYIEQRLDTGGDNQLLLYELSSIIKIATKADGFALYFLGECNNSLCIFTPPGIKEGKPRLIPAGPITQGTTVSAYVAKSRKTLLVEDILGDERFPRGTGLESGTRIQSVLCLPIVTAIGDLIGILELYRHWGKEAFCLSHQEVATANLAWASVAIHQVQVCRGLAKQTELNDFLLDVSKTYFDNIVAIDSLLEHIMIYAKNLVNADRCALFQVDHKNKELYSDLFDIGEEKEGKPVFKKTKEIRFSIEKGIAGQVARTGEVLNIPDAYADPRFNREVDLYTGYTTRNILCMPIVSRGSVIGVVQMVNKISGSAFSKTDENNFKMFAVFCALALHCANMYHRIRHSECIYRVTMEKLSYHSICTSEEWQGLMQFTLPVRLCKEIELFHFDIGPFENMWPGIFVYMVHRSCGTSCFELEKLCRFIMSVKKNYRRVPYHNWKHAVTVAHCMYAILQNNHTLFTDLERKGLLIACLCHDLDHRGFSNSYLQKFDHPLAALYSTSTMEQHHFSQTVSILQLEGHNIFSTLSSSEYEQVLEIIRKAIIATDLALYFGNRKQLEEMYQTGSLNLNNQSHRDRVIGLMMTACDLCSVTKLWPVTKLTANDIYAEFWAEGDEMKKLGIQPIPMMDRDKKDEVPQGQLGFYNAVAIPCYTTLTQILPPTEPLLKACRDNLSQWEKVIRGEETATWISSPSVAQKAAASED
T1 sequence (Q01064 whole entry): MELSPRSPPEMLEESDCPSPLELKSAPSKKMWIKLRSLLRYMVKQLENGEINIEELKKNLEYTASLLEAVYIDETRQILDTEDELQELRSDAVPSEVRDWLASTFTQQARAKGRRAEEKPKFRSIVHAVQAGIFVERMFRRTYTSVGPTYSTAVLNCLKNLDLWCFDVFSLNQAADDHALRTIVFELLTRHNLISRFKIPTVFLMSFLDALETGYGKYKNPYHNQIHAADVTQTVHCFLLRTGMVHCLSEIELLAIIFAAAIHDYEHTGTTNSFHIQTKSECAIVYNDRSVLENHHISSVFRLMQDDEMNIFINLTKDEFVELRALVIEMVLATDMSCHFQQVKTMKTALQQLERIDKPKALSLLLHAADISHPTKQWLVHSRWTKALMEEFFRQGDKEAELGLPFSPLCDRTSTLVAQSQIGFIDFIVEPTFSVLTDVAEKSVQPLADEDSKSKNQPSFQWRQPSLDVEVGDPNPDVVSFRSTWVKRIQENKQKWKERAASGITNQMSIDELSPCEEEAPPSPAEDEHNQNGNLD

inhibition [1] [%] | IC50 [2] [nM] | Structure (SMILES) | further results
– | 458 | COc1ccc2c([C@@H]3CCc4ccc(Cl)cc43)nccc2c1OC | –
– | 70 | COc1ccc2c(N3C[C@H](C)C[C@H](C)C3)ncnc2c1OC | –
– | 8 | COc1ccc2c(C3CCc4ccc(Br)cc43)ncnc2c1OC (stereo not drawn) | –
– | 230 | COc1cc2ncnc(C(C)c3cccc(Cl)c3)c2cc1OC (stereo not drawn) | –
24 | – | COc1cc2ncnc(Cc3cccc(Cl)c3)c2cc1OC | –
– | 38 | COc1ccc2c(C3CCc4ccc(F)cc43)ncnc2c1OC (stereo not drawn) | –

Further lines, the molecule ahead of its results:

Structure (SMILES) | inhibition [1] [%] | IC50 [2] [nM] | further results
COc1cc2c(N3C[C@H](C)C[C@H](C)C3)nncc2c(OC)c1OC | 0 | – | –
COc1cc2ncnc(Cc3ccccc3)c2cc1OC | 0 | – | –
COc1cc2nncc(N3CC(O)CC(c4ccccc4)C3)c2cc1OC (stereo not drawn) | – | – | IC50 [3]: 1 nM
COc1ccc2c(N3C[C@H](C)C[C@H](C)C3)ccnc2c1OC | 0 | – | –
COc1cc2cnnc(N3CC(O)CC(c4ccccc4)C3)c2cc1OC (stereo not drawn) | – | – | IC50 [3]: 3 nM
COc1ccc2c(N3C[C@H](C)C[C@H](C)C3)nccc2c1OC | 0 | – | –
COc1ccc2c(C3CCc4ccc(Cl)cc43)ncnc2c1OC (stereo not drawn) | – | 4 | –
COc1ccc2c(C(C)c3cccc(Cl)c3)ncnc2c1OC (stereo not drawn) | – | 22 | –
COc1cc2ncnc(N3CC(O)CC(c4ccccc4)C3)c2cc1OC (stereo not drawn) | – | – | IC50 [3]: 3 nM
COc1cc2c(N3C[C@H](C)C[C@H](C)C3)cnnc2c(OC)c1OC | 0 | – | –
CCC(CC)Nc1ncnc2c(OC)c(OC)c(OC)cc12 | – | – | Tmax [4]: 15 min; half-life [5]: 120 min; fraction unbound [6]: 0.18; Ratio (Nucleic Acid [7]): 0.28; Tmax [8]: 15 min; half-life [9]: 39.6 min; fraction unbound [10]: 0.1; blood plasma ratio [11]: 0.4; Ratio (Nucleic Acid [12]): 0.9; Cmax [13]: 10.9 µM; half-life [14]: 306 min
COc1cc2ncnc(C3CCc4ccc(Cl)cc43)c2cc1OC (stereo not drawn) | – | 83 | –
